The text below walks through data of paper PMC4316997, “Complex Structure and Biochemical Characterization of the Staphylococcus aureus Cyclic Diadenylate Monophosphate (c-di-AMP)-binding Protein PstA, the Founding Member of a New Signal Transduction Protein Family” (The Journal of Biological Chemistry, 2014).

For assay [1], the target named is T1, PstA (PstASA, His-PstASA) (Staphylococcus aureus, UniProt A0A0H2XH20, R67A).
T1 construct: gene SAUSA300_0460
Briefly: biochemical.

The target of assay [2] is T2, PstA (PstASA, His-PstASA) (Staphylococcus aureus, UniProt A0A0H2XH20, K2A).
T2 construct: gene SAUSA300_0460
Put plainly: biochemical.

Assay [3] addresses T3, PstA (PstASA, His-PstASA) (Staphylococcus aureus, UniProt A0A0H2XH20, D12A).
T3 construct: gene SAUSA300_0460
Put plainly: biochemical.

The target of assay [4] is T4, PstA (PstASA, His-PstASA) (Staphylococcus aureus, UniProt A0A0H2XH20, N41A).
T4 construct: gene SAUSA300_0460
Briefly: biochemical.

For assay [5], the target named is T5, PstA (PstASA, His-PstASA) (Staphylococcus aureus, UniProt A0A0H2XH20, T43A).
T5 construct: gene SAUSA300_0460
Briefly: biochemical.

Assay [6] has as its target T6, PstA (PstASA, His-PstASA) (Staphylococcus aureus, UniProt A0A0H2XH20).
T6 construct: gene SAUSA300_0460; sites at monomer-monomer interfaces
Briefly: DRaCALA, purified protein, […]-labelled ligand on nitrocellulose. It counts as binding.

For assay [7], the target named is N-terminally His-tagged PstA protein from S. aureus (His-PstASA) (S. aureus). Put plainly: SEC-MALS; 100 uM purified His-PstASA in 50 mM Tris-HCl pH 7.5, 200 mM NaCl, 5% glycerol; Superdex 10/300 column coupled to a multiangle laser light scattering detector.

As for `Nc1ncnc2c1ncn2[C@@H]1O[C@@H]2COP(=O)(O)O[C@H]3[C@@H](O)[C@H](n4cnc5c(N)ncnc54)O[C@@H]3COP(=O)(O)O[C@H]2[C@H]1O` [c-di-AMP], the Kd in assay [1] is 480 ± 40 nM; in assay [2], 340 ± 40 nM; in assay [3], 320 ± 50 nM; in assay [4], 9600 ± 2300 nM; in assay [5], 1800 ± 200 nM; in assay [6] it was 370 ± 30 nM.

In the case of “N-terminally His-tagged PstA protein from S. aureus (His-PstASA) (natural protein)”, the stoichiometry N in assay [7] came out at 3.
